{
  "source": "patent US20090041666A1",
  "about": "“Ophthalmic formulations of Amyloid-beta contrast agent and methods of use thereof” (priority 2007, published 2009)",
  "key": {"[1]": {"target": "T1, Aβ(1-40) (Homo sapiens, UniProt P05067)", "T1 construct": "Aβ(1-40)", "T1 sequence (P05067 672-711 limits assumed)": "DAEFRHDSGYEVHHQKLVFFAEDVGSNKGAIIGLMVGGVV", "conditions": "* = compound only partially soluble at this concentration, cited from earlier work"}, "[2]": {"conditions": "injected into the tail; ex vivo 2-photon fluorescent microscopy; cited from earlier work"}, "[3]": {"conditions": "cited from earlier work"}, "[4]": {"assay": "Particle size after the grinding process", "type": "physicochemical", "conditions": "micronized by the grinding process", "procedure": "For example, Polysorbate 80 is weighed into a polypropylene bottle, and an initial amount of sterile water for injection, USP, is weighed into the bottle. Next, Methoxy-X04 is weighed and added to the bottle. The current batch weight is determined, and the final amount of sterile water for injection to adjust the formulation to a final batch weight is added. Then, the YTZ grinding media is added to the bottle, and the bottle is placed on a roller mill for a minimum of 12 hours at a setting of 50%.\nAfter the milling process, a polishing filter and Masterflex tubing are connected to the bottom of a Millipore housing assembly, while a high-pressure hose is attached to the top of the Millipore housing. Using a nitrogen pressure gauge, the solution is pushed thorough the housing and the polish filter. For example, the pressure used is between 3 psi and 5 psi. This grinding process yields micronized Methoxy-X04 having a mean particle size of 1.157 μm with 100% of particles smaller than 10 μm and greater than 75% of particles smaller than 5 μm. Thus, those skilled in the art will recognize that this exemplary milling process produces Methoxy-X04 particles that are suitable for either topical or parenteral formulation, without requiring the use of solvents, such as dimethyl sulfoxide, that are incompatible with use in drug formulations."}, "[5]": {"tested_on": "Aβ plaques", "conditions": "in vivo animal models and ex vivo human tissue (CR: Aβ aggregations); cited from earlier work"}, "[6]": {"assay": "Solubility in water and in ophthalmic carriers", "type": "physicochemical", "description": "Specifically, a mixture of approximately 85% petrolatum and 15% mineral oil is a suitable carrier. […] The petrolatum in this ophthalmic formulation can act as a carrier for a combination of dissolved and suspended Methoxy-X04, by altering the aqueous portions of the eye to accept the compound more readily by adding lipophilic material to the solution of the eye's environment and by altering the interactions of the eye with the compound by shielding it from the aqueous environment.\nHydroxypropyl methylcellulose can act in part as a carrier of microparticles in suspension for a mixture of dissolved and suspended Methoxy-X04. This effect occurs by altering the aqueous portions of the eye to enable them to accept the hydrophobic compounds more readily, by adding lipophilic material to the eye's environment and/or by altering the interactions of the compound with the eye by shielding the hydrophobic compound from the aqueous environment.\nX34 (Formula II) is a ligand molecule that is derived from Congo Red by replacing the naphthalene sulfonic acids with salicylic acids and the azo linkage with an ethenyl link. […] At room temperature, X34 is a yellow powder, which fluoresces upon exposure to UV light. The logPoct for X34 is 0.42. […] Preferably, ophthalmic formulations containing X34 (or other hydrophilic compounds of Formula I) have LogD values of between 1 and 3."}, "[7]": {"conditions": "pH 7.4; cited from earlier work"}, "[8]": {"assay": "Octanol-water partition coefficient", "type": "physicochemical", "conditions": "pH 7.4", "description": "Those skilled in the art will recognize that the hydrophobicity and hydrophilicity of a substance can be measured using the octanol-water partition coefficient (“Poct” or “Kow”), for compounds whose solubility is not altered by the pH and ionic characteristic of the solute, or LogD value, for compounds whose solubility is altered by the pH and ionic characteristic of the solute. LogD is the logarithm of the distribution coefficient, which is the ratio of the sum of the concentrations of all species of a compound in octanol to the sum of the concentrations of all species of the compound in water.\nIn these contexts, hydrophobicity is related to factors such as absorption, bioavailabity, hydrophobic drug-receptor interactions, metabolism, and/or toxicity. As used herein, the logPoct is synonymous to logKow, and both measurements are used interchangeably herein. Likewise, logPoct is a functionally equivalent measure to LogD; both values reflect the degree of solubility of a given compound."}, "[9]": {"conditions": "given as Inact, tested at 10 μm"}},
  "note": "Where two headings read alike, the source gives them in different places.",
  "data": [
    {"smiles": "COC(=O)c1cc(/C=C/c2ccc(/C=C/c3ccc(OC)c(C(=O)OC)c3)cc2)ccc1OC", "note": "[X:E:B34 bis(4-methoxy) dimethyl ester]", "values": [
      {"measurement": "Ki", "setting": "[1]; [9]", "result": "> 10000", "unit": "nM"}
    ]},
    {"smiles": "Oc1ccc(/C=C/c2ccc(/C=C/c3ccc(O)cc3)c(O)c2)cc1", "note": "[2′-HO-X:E:B04]", "values": [
      {"measurement": "Ki", "setting": "[1]; [3H]CG binding to Aβ(1-40)", "result": 9, "unit": "nM"}
    ]},
    {"smiles": "Oc1ccc(/C=C/c2ccc(/C=C/c3ccc(O)cc3)cc2)cc1", "note": "[X:E:B04]", "values": [
      {"measurement": "Ki", "setting": "[1]; [3H]CG binding to Aβ(1-40)", "result": 3100, "unit": "nM"}
    ]},
    {"smiles": "O=C(O)c1cccc(/C=C/c2ccc(/C=C/c3cccc(C(=O)O)c3)cc2)c1", "note": "[X:E:B30]", "values": [
      {"measurement": "Ki", "setting": "[1]; [3H]CG binding to Aβ(1-40)", "result": 135, "unit": "nM"}
    ]},
    {"smiles": "COc1ccc(/C=C/c2ccc(/C=C/c3ccc(OC)cc3)c(O)c2)cc1", "note": "[2′-HO-X:E:B04bis(4-methoxy)]", "values": [
      {"measurement": "Ki", "setting": "[1]; [9]", "result": "> 10000", "unit": "nM"}
    ]},
    {"smiles": "COC(=O)c1cc(/C=C/c2ccc(/C=C/c3ccc(O)c(C(=O)OC)c3)cc2)ccc1O", "note": "[X:E:B34 dimethylester]", "values": [
      {"measurement": "Ki", "setting": "[1]; [3H]CG binding to Aβ(1-40)", "result": 119, "unit": "nM"}
    ]},
    {"smiles": "COc1ccc(/C=C/c2ccc(/C=C/c3ccc(OC)c(C(=O)O)c3)cc2)cc1C(=O)O", "note": "[X:E:B34 bis(4-methoxy)]", "values": [
      {"measurement": "Ki", "setting": "[1]; [3H]CG binding to Aβ(1-40)", "result": 47, "unit": "nM"}
    ]},
    {"smiles": "COc1cc(/C=C/c2ccc(O)cc2)ccc1/C=C/c1ccc(O)cc1", "note": "[2-CH3O-X:E:B04]", "values": [
      {"measurement": "detection in the lens", "setting": "[2]", "result": "could be detected in the supranuclear region of the lens"},
      {"measurement": "Ki", "setting": "[1]; [3H]CG binding to Aβ(1-40)", "result": 27, "unit": "nM"},
      {"measurement": "Oral rat LD50", "setting": "[3]", "result": "~15000", "unit": "mg/kg"},
      {"measurement": "mean particle size", "setting": "[4]", "result": 1.157, "unit": "μm"},
      {"measurement": "particles smaller than 5 μm", "setting": "[4]", "result": "greater than 75%"},
      {"measurement": "particles smaller than 10 μm", "setting": "[4]", "result": 100, "unit": "%"},
      {"measurement": "binding to Aβ plaques / aggregations", "setting": "[5]", "result": "selectively binds to Aβ plaques"},
      {"measurement": "solubility in water", "setting": "[6]", "result": "insoluble"},
      {"measurement": "state in carrier at 10 mg/gm", "setting": "[6]; 10 mg/gm of carrier, petrolatum and mineral oil", "result": "remains primarily in suspension"},
      {"measurement": "state in carrier at 0.1%", "setting": "[6]; 0.1% (1 mg per gm carrier), aqueous formulation with hydroxypropyl methylcellulose", "result": "remains in solution"},
      {"measurement": "state in carrier at 0.1%", "setting": "[6]; 0.1% (1 mg per gm of carrier), about 85% petrolatum and 15% mineral oil", "result": "remains in solution"}
    ]},
    {"smiles": "Nc1c(/N=N/c2ccc(-c3ccc(/N=N/c4cc(S(=O)(=O)O)c5ccccc5c4N)cc3)cc2)cc(S(=O)(=O)O)c2ccccc12", "note": "[CR, Congo Red]", "values": [
      {"measurement": "binding to Aβ plaques / aggregations", "setting": "[5]", "result": "selectively binds to Aβ aggregations with high affinity"},
      {"measurement": "logPoct", "setting": "[7]", "result": 0.18},
      {"measurement": "octanol-water partition coefficient (Poct)", "setting": "[7]", "result": 0.7}
    ]},
    {"smiles": "COc1ccc(/C=C/c2ccc(/C=C/c3ccc(OC)cc3)c(OC)c2)cc1", "note": "[2′-CH3O-X:E:B04 bis(4-methoxy)]", "values": [
      {"measurement": "Ki", "setting": "[1]; [9]", "result": "> 10000", "unit": "nM"}
    ]},
    {"smiles": "O=C(O)c1cc(/N=N/c2ccc(-c3ccc(/N=N/c4ccc(O)c(C(=O)O)c4)cc3)cc2)ccc1O", "note": "[CG, Chrysamine G]", "values": [
      {"measurement": "Poct of CG relative to CR", "setting": "[8]", "result": "~100", "unit": "fold"},
      {"measurement": "logPoct", "setting": "[7]", "result": 1.8},
      {"measurement": "octanol-water partition coefficient (Poct)", "setting": "[7]", "result": 60}
    ]},
    {"smiles": "COC(=O)c1cccc(/C=C/c2ccc(/C=C/c3cccc(C(=O)OC)c3)cc2)c1", "note": "[X:E:B30 dimethylester]", "values": [
      {"measurement": "Ki", "setting": "[1]; [9]", "result": "> 10000", "unit": "nM"}
    ]},
    {"smiles": "COc1ccc(/C=C/c2ccc(/C=C/c3ccc(OC)cc3)cc2)cc1", "note": "[X:E:B04 bis(4-methoxy)]", "values": [
      {"measurement": "Ki", "setting": "[1]; [9]", "result": "> 10000", "unit": "nM"}
    ]},
    {"smiles": "O=C(O)c1cc(/C=C/c2ccc(/C=C/c3ccc(O)c(C(=O)O)c3)cc2)ccc1O", "note": "[X:E:B34 (X-34)]", "values": [
      {"measurement": "Ki", "setting": "[1]; [3H]CG binding to Aβ(1-40)", "result": 18, "unit": "nM"},
      {"measurement": "Oral rat LD50", "setting": "[3]", "result": "~15000", "unit": "mg/kg"},
      {"measurement": "binding to Aβ plaques / aggregations", "setting": "[5]", "result": "selectively binds to β-amyloid plaques"},
      {"measurement": "solubility in water", "setting": "[6]", "result": "moderately soluble"},
      {"measurement": "state in carrier at 0.1%", "setting": "[6]; 0.1% of X34 (1 mg active per gm of carrier)", "result": "appears to remain in solution"}
    ]}
  ]
}
